Measurements reported in patent publication US20250197374A1, “WEE1 DEGRADING COMPOUNDS AND USES THEREOF” (BRISTOL-MYERS SQUIBB COMPANY, priority 2023, published 2025).

Assays:
Type in all cases: cell-based
WEE1 = target: T1, WEE1 (Homo sapiens, UniProt P30291+Q96SW2); test: WEE1-ePL degradation assay (293T-LentiX, InCELL Hunter luminescence, 4 hr); details: for DC50: LentiX-HEK293T cells expressing WEE1-ePL, 4 hr incubation, read-out: 293T-LentiX WEE1-ePL Degradation 4 hr EC50; for 293T-LentiX WEE1-ePL Degradation 4 hr YMin (%): lower limit of fit, % of DMSO control signal remaining
T1 construct: C-terminal ePL-tagged (DiscoverX, Fremont, CA) full-length WEE1 expression construct; expressed in transfected cells; host or cells: LentiX-HEK293T (Invitrogen), lentivirally transduced; the cells also over-express GSPT1-GN
T1 sequence (P30291 whole entry): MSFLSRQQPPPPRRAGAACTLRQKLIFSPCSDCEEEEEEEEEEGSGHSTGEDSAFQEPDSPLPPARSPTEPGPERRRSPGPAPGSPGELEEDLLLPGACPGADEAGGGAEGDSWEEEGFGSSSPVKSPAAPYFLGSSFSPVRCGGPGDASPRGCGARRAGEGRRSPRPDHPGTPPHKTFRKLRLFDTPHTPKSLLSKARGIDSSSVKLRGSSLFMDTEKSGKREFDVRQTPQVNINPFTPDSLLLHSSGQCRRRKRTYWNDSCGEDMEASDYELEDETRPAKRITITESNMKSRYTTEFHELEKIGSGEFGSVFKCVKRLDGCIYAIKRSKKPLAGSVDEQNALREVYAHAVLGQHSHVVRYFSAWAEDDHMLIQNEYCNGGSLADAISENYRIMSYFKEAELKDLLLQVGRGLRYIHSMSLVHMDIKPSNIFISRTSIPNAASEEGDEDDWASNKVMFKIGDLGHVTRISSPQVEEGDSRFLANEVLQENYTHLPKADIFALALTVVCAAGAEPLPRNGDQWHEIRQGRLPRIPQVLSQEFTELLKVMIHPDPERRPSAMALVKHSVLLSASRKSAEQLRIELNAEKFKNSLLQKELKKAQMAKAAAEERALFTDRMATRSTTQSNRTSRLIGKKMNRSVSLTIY
T1 sequence (Q96SW2 whole entry): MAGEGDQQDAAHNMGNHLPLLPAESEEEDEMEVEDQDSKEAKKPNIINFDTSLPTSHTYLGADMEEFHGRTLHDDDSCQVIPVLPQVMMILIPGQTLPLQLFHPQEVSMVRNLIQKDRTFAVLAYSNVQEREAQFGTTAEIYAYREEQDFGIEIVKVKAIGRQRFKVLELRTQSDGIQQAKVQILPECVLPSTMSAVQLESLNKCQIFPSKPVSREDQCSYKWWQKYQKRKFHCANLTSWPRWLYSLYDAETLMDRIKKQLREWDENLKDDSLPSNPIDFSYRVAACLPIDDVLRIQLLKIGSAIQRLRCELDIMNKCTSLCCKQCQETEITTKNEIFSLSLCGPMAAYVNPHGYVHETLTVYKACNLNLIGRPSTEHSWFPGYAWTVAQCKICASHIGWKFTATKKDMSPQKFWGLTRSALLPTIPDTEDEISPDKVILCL
T1 sequence (Q16531 whole entry partner): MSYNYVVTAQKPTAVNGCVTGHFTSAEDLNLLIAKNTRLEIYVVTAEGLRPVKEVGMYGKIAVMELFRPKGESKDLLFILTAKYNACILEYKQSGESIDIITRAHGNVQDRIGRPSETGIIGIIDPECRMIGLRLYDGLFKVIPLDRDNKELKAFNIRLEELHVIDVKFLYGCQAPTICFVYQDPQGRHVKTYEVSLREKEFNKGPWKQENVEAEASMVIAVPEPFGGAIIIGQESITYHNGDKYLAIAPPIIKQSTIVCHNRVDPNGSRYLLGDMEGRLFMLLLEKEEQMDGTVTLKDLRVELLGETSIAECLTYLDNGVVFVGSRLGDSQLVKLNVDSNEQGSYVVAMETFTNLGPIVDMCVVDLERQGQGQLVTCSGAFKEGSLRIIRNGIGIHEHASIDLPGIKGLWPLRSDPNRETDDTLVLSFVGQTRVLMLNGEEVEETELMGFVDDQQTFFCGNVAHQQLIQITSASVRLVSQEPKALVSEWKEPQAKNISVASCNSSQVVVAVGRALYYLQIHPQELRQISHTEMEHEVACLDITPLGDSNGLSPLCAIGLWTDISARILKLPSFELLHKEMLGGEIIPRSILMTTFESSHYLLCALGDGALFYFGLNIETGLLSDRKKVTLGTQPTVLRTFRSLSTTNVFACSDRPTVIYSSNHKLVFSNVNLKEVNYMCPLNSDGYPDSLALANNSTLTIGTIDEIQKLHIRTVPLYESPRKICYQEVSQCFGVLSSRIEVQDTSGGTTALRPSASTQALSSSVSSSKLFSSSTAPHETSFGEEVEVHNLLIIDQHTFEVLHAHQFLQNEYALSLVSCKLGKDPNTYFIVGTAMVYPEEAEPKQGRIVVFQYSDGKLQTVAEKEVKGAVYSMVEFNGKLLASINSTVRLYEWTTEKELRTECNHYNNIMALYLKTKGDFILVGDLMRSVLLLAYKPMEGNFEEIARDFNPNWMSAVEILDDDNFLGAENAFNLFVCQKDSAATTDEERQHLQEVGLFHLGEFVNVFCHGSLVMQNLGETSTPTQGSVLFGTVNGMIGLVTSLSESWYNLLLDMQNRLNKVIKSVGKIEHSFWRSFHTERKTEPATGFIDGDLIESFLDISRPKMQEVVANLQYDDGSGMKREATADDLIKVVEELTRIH
Method in brief: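 EC50 comes from a four-parameter logistic fit of ePL luminescence (InCELL Hunter), with DMSO control defining Ymax. Compounds ran as 10-point 3-fold dilutions from 1 or 10 µM for 4 h at 37 °C. Cells were HEK293T-LentiX with ePL-tagged full-length WEE1 and over-expressed Cereblon-resistant GSPT1-GN.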

MKN45 cells = test: MKN45 cell proliferation assay (Cell-Titer-Glo, 120 hr); details: for EC50: Homo sapiens, MKN-45, 120 h, read-out: MKN45 Cell Prolif. 120 hr EC50; for MKN45 Cell Prolif. 120 hr YMin (%): minimal percent of DMSO control observed
Method in brief: (§1)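 Growth inhibition was read as CellTiter-Glo luminescence after 120 h at 37 °C in RPMI/10% FBS, with 400 MKN45 or 800 MDA-MB-231 cells seeded per well. Compounds were tested in 10-point half-log series starting at 1 or 10 uM (0.1% DMSO), in triplicate for MKN45 and duplicate for MDA-MB-231. EC50 values are four-parameter fits to %DMSO control, and Ymin-obs is the minimal observed %DMSO.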

MDA-MB-231 cells = test: MDA-MB-231 cell proliferation assay (Cell-Titer-Glo, 120 hr); details: for EC50: Homo sapiens, MDA-MB-231, 120 h, read-out: MDA-MB 231 Cell Prolif. 120 hr EC50; for MDA-MB 231 Cell Prolif. 120 hr YMin (%): minimal percent of DMSO control observed
Method in brief: as §1

SMILES	DC50 (WEE1) [nM]	293T-LentiX WEE1-ePL Degradation 4 hr YMin (%) (WEE1)	EC50 (MKN45 cells) [nM]	MKN45 Cell Prolif. 120 hr YMin (%) (MKN45 cells)	EC50 (MDA-MB-231 cells) [nM]	MDA-MB 231 Cell Prolif. 120 hr YMin (%) (MDA-MB-231 cells)
COC[C@@H]1CN(Cc2cc(F)c3nc(C4CCN(C(C)=O)C4)ccc3c2)C[C@H]1Oc1ccc2c(c1)CN([C@H]1CCC(=O)NC1=O)C2=O (relative stereo) [Example 67, rel-(3S)-3-(5-(((3S,4S)-1-((2-(1-acetylpyrrolidin-3-yl)-8-fluoroquinolin-6-yl)methyl)-4-(methoxymethyl)pyrrolidin-3-yl)oxy)-1-oxoisoindolin-2-yl)piperidine-2,6-dione]	1	29.6	1	12.3	28	37.7
COC[C@@H]1CN(Cc2cc(F)c3ncc(C4CCOCC4)cc3c2)C[C@H]1Oc1ccc2c(c1)CN([C@H]1CCC(=O)NC1=O)C2=O [Example 109, (3S)-3-(5-{[(3S,4S)-1-{[8-fluoro-3-(oxan-4-yl)quinolin-6-yl]methyl}-4-(methoxymethyl)pyrrolidin-3-yl]oxy}-1-oxo-2,3-dihydro-1H-isoindol-2-yl)piperidine-2,6-dione]		27.5	1	8.7	16	37.3
O=C1CC[C@H](N2Cc3cc(O[C@@H]4CN(Cc5cc(F)c6nc(C7CCOCC7)ccc6c5)C[C@H]4C4CCCC4)ccc3C2=O)C(=O)N1 (relative stereo) [Example 123, (S)-3-(5-(((3S*,4R*)-4-Cyclopentyl-1-((8-fluoro-2-(tetrahydro-2H-pyran-4-yl)-quinolin-6-yl)methyl)pyrrolidin-3-yl)oxy)-1-oxoisoindolin-2-yl)piperidine-2,6-dione]		82.5		80.9	3490	81.9
COC[C@@H]1CN(Cc2cc(F)c3nc(C4CCCN4C)ncc3c2)C[C@H]1Oc1ccc2c(c1)CN([C@H]1CCC(=O)NC1=O)C2=O (relative stereo) [Example 77, rel-(3S)-3-(5-{[(3S,4S)-1-{[8-fluoro-2-(1-methylpyrrolidin-2-yl)quinazolin-6-yl]methyl}-4-(methoxymethyl)pyrrolidin-3-yl]oxy}-1-oxo-2,3-dihydro-1H-isoindol-2-yl)piperidine-2,6-dione]	23	25.5	43	13.1	332	80.1
O=C1CC[C@H](N2Cc3cc(O[C@H]4CN(Cc5cc(F)c6nc(C7CCOCC7)ccc6c5)C[C@@H]4c4ccccc4)ccc3C2=O)C(=O)N1 (relative stereo) [Example 145, (S)-3-(5-(((3R*,4S*)-1-((8-fluoro-2-(tetrahydro-2H-pyran-4-yl)quinolin-6-yl)methyl)-4-phenylpyrrolidin-3-yl)oxy)-1-oxoisoindolin-2-yl)piperidine-2,6-dione]	4	22.4	33	16.3	2370	74.7
O=C1CC[C@H](N2Cc3cc(O[C@H]4CCN(Cc5ccc6nc([C@@H]7CCO[C@@]8(CCOC8)C7)ccc6c5)C4)ccc3C2=O)C(=O)N1 (relative stereo) [Example 20, rel-(3S)-3-(5-(((3S)-1-((2-(2,6-dioxaspiro[4.5]decan-9-yl)quinolin-6-yl)methyl)pyrrolidin-3-yl)oxy)-1-oxoisoindolin-2-yl)piperidine-2,6-dione]	1	30.3	5	11.6	101	60.2
COC[C@@H]1CN(Cc2cc(F)c3nc(C(=O)N(C)C)ccc3c2)C[C@H]1Oc1ccc2c(c1)CN([C@H]1CCC(=O)NC1=O)C2=O [Example 58, 6-{[(3S,4S)-3-({2-[(3S)-2,6-dioxopiperidin-3-yl]-1-oxo-2,3-dihydro-1H-isoindol-5-yl}oxy)-4-(methoxymethyl)pyrrolidin-1-yl]methyl}-8-fluoro-N,N-dimethylquinoline-2-carboxamide]	5	31.1	6	11.2	213	28.1
COC[C@@H]1CN(Cc2cc(F)c3nc(N4CCN(C5COC5)CC4)ncc3c2)C[C@H]1Oc1ccc2c(c1)CN([C@H]1CCC(=O)NC1=O)C2=O [Example 141, (3S)-3-(5-{[(3S,4S)-1-({8-fluoro-2-[4-(oxetan-3-yl)piperazin-1-yl]quinazolin-6-yl}methyl)-4-(methoxymethyl)pyrrolidin-3-yl]oxy}-1-oxo-2,3-dihydro-1H-isoindol-2-yl)piperidine-2,6-dione]	1	26.5	1	11.4	44	31.7
O=C1CC[C@H](N2Cc3cc(O[C@@H]4CN(Cc5ccc6nc(N7C[C@@H]8CCO[C@@H]8C7)ccc6c5)CC4(F)F)ccc3C2=O)C(=O)N1 (single isomer, unassigned) [Example 17, (S)-3-(5-(((R)-4,4-difluoro-1-((2-((3aS*,6aS*)-hexahydro-5H-furo[2,3-c]pyrrol-5-yl)quinolin-6-yl)methyl)pyrrolidin-3-yl)oxy)-1-oxoisoindolin-2-yl)piperidine-2,6-dione]	2	25.6	5	13.2	45	47.2
O=C1CC[C@H](N2Cc3cc(O[C@@H]4CN(Cc5cc(F)c6nc(C7CCOCC7)ccc6c5)C[C@H]4CO)ccc3C2=O)C(=O)N1 [Example 139, (3S)-3-(5-{[(3S,4S)-1-{[8-fluoro-2-(oxan-4-yl)quinolin-6-yl]methyl}-4-(hydroxymethyl)pyrrolidin-3-yl]oxy}-1-oxo-2,3-dihydro-1H-isoindol-2-yl)piperidine-2,6-dione]	2	20.2	5	10.3	133	65.9
COC[C@@H]1CN(Cc2cc(F)c3nc(C4CCC(C(C)(C)O)CC4)ccc3c2)C[C@H]1Oc1ccc2c(c1)CN([C@H]1CCC(=O)NC1=O)C2=O (relative stereo) [Example 57, rel-(S)-3-(5-(((3S,4S)-1-((8-fluoro-2-(4-(2-hydroxypropan-2-yl)cyclohexyl)quinolin-6-yl)methyl)-4-(methoxymethyl)pyrrolidin-3-yl)oxy)-1-oxoisoindolin-2-yl)piperidine-2,6-dione]		30.3		8.0	11	13.2
O=C1CC[C@H](N2Cc3cc(O[C@@H]4CN(Cc5ccc6nc(N7C[C@H]8CCO[C@H]8C7)ccc6c5)CC4(F)F)ccc3C2=O)C(=O)N1 (single isomer, unassigned) [Example 6, (S)-3-(5-(((R)-4,4-difluoro-1-((2-((3aR*,6aR*)-hexahydro-5H-furo[2,3-c]pyrrol-5-yl)quinolin-6-yl)methyl)pyrrolidin-3-yl)oxy)-1-oxoisoindolin-2-yl)piperidine-2,6-dione]	2	27.4	5	11.8	63	62.4
COC[C@@H]1CN(Cc2cc(F)c3nc(C4CCOC(C)(C)C4)ncc3c2)C[C@H]1Oc1ccc2c(c1)CN([C@H]1CCC(=O)NC1=O)C2=O (stereo partly drawn) [Example 91, (3S)-3-(5-{[(3S,4S)-1-{[2-(2,2-dimethyloxan-4-yl)-8-fluoroquinazolin-6-yl]methyl}-4-(methoxymethyl)pyrrolidin-3-yl]oxy}-1-oxo-2,3-dihydro-1H-isoindol-2-yl)piperidine-2,6-dione]	4	27.1	2	10.5	105	9.6
COC[C@@H]1CN(Cc2cc3ccc(N4CCOCC4)cc3cn2)C[C@H]1Oc1ccc2c(c1)CN([C@H]1CCC(=O)NC1=O)C2=O [Example 28, (3S)-3-(5-{[(3S,4S)-4-(methoxymethyl)-1-{[7-(morpholin-4-yl)isoquinolin-3-yl]methyl}pyrrolidin-3-yl]oxy}-1-oxo-2,3-dihydro-1H-isoindol-2-yl)piperidine-2,6-dione]	1	29.1	1	11.2	48	22.1
